The test system of data set [1] is Rattus norvegicus. Nature of the data set: Antihypertensive activity in spontaneously hypertensive rat assessed as systolic arterial pressure at 80 mg/kg, po measured after 8 hrs by tail-cuff method (reference value: 179.42 +/- 13.70 mmHg). It is filed as functional.
Data set [2] has as its system Rattus norvegicus. Nature of the data set: Antihypertensive activity in spontaneously hypertensive rat assessed as systolic arterial pressure at 80 mg/kg, po measured after 4 hrs by tail-cuff method (reference value: 178.66 +/- 17.18 mmHg). It is filed as functional.
For data set [3], the system named is Rattus norvegicus. Nature of the data set: Antihypertensive activity in spontaneously hypertensive rat assessed as diastolic arterial pressure at 80 mg/kg, po measured after 2 hrs by tail-cuff method (reference value: 149.90 +/- 6 mmHg). In kind it is functional.
The subject of data set [4] is Rattus norvegicus. Kind of data set: Effect on heart rate in spontaneously hypertensive rat assessed as heart rate level at 80 mg/kg, po measured after 0 hrs by tail-cuff method (reference value: 413.17 +/- 10.5 bpm). In kind it is ADME, organism-based. The following applies: in vivo.
For data set [5], the system named is Rattus norvegicus. Nature of the data set: Antihypertensive activity in spontaneously hypertensive rat assessed as mean arterial pressure at 80 mg/kg, po measured after 0 hrs by tail-cuff method (reference value: 161.70 +/- 5.12 mmHg). It is filed as functional.
In data set [6] the test system is Rattus norvegicus. Kind of data set: Antihypertensive activity in spontaneously hypertensive rat assessed as diastolic arterial pressure at 80 mg/kg, po measured after 1 hr by tail-cuff method (reference value: 147.33 +/- 9.8 mmHg). It is filed as functional.
In data set [7] the test system is Rattus norvegicus. Kind of data set: Effect on heart rate in spontaneously hypertensive rat assessed as heart rate level at 80 mg/kg, po measured after 2 hrs by tail-cuff method (reference value: 413.2 +/- 15.2 bpm). It is filed as ADME, organism-based. Conditions: in vivo.
The subject of data set [8] is Rattus norvegicus. Nature of the data set: Antihypertensive activity in spontaneously hypertensive rat assessed as mean arterial pressure at 80 mg/kg, po measured after 6 hrs by tail-cuff method (reference value: 151.48 +/- 12.24 mmHg). In kind it is functional.
The subject of data set [9] is Rattus norvegicus. Nature of the data set: Antihypertensive activity in spontaneously hypertensive rat assessed as mean arterial pressure at 80 mg/kg, po measured after 2 hrs by tail-cuff method (reference value: 163 +/- 8.1 mmHg). In kind it is functional.
Data set [10] has as its system Thoracic aorta. Kind of data set: Vasodilatory activity in Sprague-Dawley rat thoracic aorta assessed as inhibition of noradrenaline-induced contractions at 10 uM relative to untreated control. In kind it is functional.
The subject of data set [11] is Rattus norvegicus. Kind of data set: Effect on heart rate in spontaneously hypertensive rat assessed as heart rate level at 80 mg/kg, po measured after 6 hrs by tail-cuff method (reference value: 411.12 +/- 19.1 bpm). In kind it is ADME, organism-based. The following applies: in vivo.
The subject of data set [12] is Rattus norvegicus. Kind of data set: Antihypertensive activity in spontaneously hypertensive rat assessed as diastolic arterial pressure at 80 mg/kg, po measured after 8 hrs by tail-cuff method (reference value: 140.61 +/- 10.3 mmHg). It is filed as functional.
For data set [13], the system named is Thoracic aorta. Nature of the data set: Vasodilatory activity in Sprague-Dawley rat thoracic aorta assessed as inhibition of noradrenaline-induced contractions at 100 uM relative to untreated control. It is filed as functional.
Data set [14] deals with Rattus norvegicus. Nature of the data set: Antihypertensive activity in spontaneously hypertensive rat assessed as mean arterial pressure at 80 mg/kg, po measured after 1 hr by tail-cuff method (reference value: 160 +/- 9.97 mmHg). In kind it is functional.
For data set [15], the system named is Rattus norvegicus. Kind of data set: Antihypertensive activity in spontaneously hypertensive rat assessed as diastolic arterial pressure at 80 mg/kg, po measured after 4 hrs by tail-cuff method (reference value: 136.12 +/- 5.3 mmHg). In kind it is functional.
Data set [16] has as its system Rattus norvegicus. Kind of data set: Effect on heart rate in spontaneously hypertensive rat assessed as heart rate level at 80 mg/kg, po measured after 8 hrs by tail-cuff method (reference value: 412.77 +/- 11.3 bpm). The following applies: in vivo. It is filed as ADME, organism-based.
Data set [17] deals with T1, Alpha-1D adrenergic receptor (Rattus norvegicus, UniProt P23944).
T1 sequence (P23944 whole entry): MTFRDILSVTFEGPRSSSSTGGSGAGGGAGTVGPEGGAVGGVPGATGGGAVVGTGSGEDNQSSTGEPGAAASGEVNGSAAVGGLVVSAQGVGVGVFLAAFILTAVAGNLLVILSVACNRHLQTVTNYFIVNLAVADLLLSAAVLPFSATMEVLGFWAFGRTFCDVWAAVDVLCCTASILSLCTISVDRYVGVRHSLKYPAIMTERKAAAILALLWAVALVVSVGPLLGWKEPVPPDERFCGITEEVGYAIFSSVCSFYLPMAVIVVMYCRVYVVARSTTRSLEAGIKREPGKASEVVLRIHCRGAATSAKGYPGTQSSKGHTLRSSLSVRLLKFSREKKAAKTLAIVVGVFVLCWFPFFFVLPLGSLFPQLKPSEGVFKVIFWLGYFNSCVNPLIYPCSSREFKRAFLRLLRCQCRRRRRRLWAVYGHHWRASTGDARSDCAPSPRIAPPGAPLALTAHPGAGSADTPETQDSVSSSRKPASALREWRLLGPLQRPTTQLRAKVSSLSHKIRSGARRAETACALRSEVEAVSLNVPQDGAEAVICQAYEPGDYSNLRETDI
Kind of data set: Antagonist activity at alpha-1D adrenergic receptor in SPF rat vas thoracic aorta assessed as inhibition of noradrenaline-induced contractions. The following applies: read-out: pA2 (converted).

For data set [18], the target named is T2, Alpha-1B adrenergic receptor (Rattus norvegicus, UniProt P15823).
T2 sequence (P15823 whole entry): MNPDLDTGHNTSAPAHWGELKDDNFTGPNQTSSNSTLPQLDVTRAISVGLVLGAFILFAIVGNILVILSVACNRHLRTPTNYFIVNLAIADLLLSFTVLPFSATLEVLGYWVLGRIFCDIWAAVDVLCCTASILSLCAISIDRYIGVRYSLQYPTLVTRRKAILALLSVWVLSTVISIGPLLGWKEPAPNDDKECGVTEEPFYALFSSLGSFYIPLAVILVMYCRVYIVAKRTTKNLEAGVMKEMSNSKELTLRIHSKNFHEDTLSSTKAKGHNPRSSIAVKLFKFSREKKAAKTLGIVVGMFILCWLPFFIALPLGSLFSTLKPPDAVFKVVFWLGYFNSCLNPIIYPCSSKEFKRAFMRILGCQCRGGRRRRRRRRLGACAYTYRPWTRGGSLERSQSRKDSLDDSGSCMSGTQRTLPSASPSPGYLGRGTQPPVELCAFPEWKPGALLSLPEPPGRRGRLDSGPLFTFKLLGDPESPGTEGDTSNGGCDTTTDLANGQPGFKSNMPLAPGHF
Nature of the data set: Antagonist activity at alpha-1b adrenergic receptor in SPF rat spleen assessed as inhibition of noradrenaline-induced contractions. Conditions: read-out: pA2 (converted). It is filed as tissue-based.

Each structure is given as a SMILES string.

Data on one molecule can be found in ChEMBL document CHEMBL4340549, “Design, synthesis and biological evaluation of isochroman-4-one hybrids bearing piperazine moiety as antihypertensive agent candidates” (Bioorg Med Chem, 2019).

What is called inhibition is the change of the read-out against control, counted positive when it falls. In the case of `COc1cc2c(cc1OCC(O)CN1CCN(C(=O)C3CCCO3)CC1)C(=O)C(C)OC2` (stereo not drawn), the Activity is reported as 170.38 mmHg in the data set on Rattus norvegicus [1]; 140.29 mmHg with Rattus norvegicus [2]; 131.86 mmHg with Rattus norvegicus [3]; 415.33 bpm in the data set with Rattus norvegicus [4]; 166.7 mmHg with Rattus norvegicus [5]; 144.15 mmHg in the data set with Rattus norvegicus [6]. For the same molecule, the Activity was found to be 408.14 bpm in the data set on Rattus norvegicus [7]; 140.83 mmHg in the data set with Rattus norvegicus [8]; 138.17 mmHg with Rattus norvegicus [9]; 411.01 bpm in the data set on Rattus norvegicus [11]; 141.89 mmHg with Rattus norvegicus [12]; 152.5 mmHg in the data set with Rattus norvegicus [14]. The Activity in the data set on Rattus norvegicus [15] stood at 120.54 mmHg; in the data set on Rattus norvegicus [16], 413.16 bpm. Besides, in the data set with Thoracic aorta [10], the inhibition at 10 µM was 41.6%. Further, the inhibition at 100 µM with Thoracic aorta [13] was determined as 64%. For the same molecule, the figures for the Kb in data set [17] and in data set [18] were 189 to 195 nM and 35.5 nM, respectively.
